Reference: ChEMBL document CHEMBL1152587, “Application of the McMurry coupling reaction in the synthesis of tri- and tetra-arylethylene analogues as potential cancer chemotherapeutic agents” (Bioorg Med Chem, 2009)

Legend:
DU-145 = experiment: Anticancer activity against human DU145 cells after 48 hrs by SRB assay; conditions: DU-145, 48 h
[1] = Inhibition of bovine tubulin polymerization after 20 mins by turbidimetrically

GI50 (DU-145) [nM] | IC50 [1] [nM] | SMILES
2 | – | COc1ccc(/C=C\c2cc(OC)c(OC)c(OC)c2)cc1O [COMBRETASTATIN A4]
– | > 40000 | CC/C(=C(\c1ccccc1)c1ccc(OCCN(C)C)cc1)c1ccccc1 [TAMOXIFEN]
